Reference: PubChem BioAssay AID1599 (NINDS Approved Drug Screening Program, 2009)

Tested on: C. elegans polyQ-huntingtin mechanosensory neurons, touch response
Test: rescue of polyQ-huntingtin neuronal dysfunction in worms, whole organism, C. elegans mechanosensory neurons, N-terminal huntingtin (AID 1599)

SMILES	EC50 [µM]
O=C1c2ccc(O)c(O)c2C(=O)c2c(O)ccc(O)c21	2.8
Cc1cc2cc3c(C)cc(=O)oc3c(C)c2o1	3.8
CNCCC=C1c2ccccc2CCc2ccccc21	1.8
CCn1cc(C(=O)O)c(=O)c2cc3c(cc21)OCO3	2.3
C[C@@H]1O[C@@H](O[C@H]2[C@H](Oc3cc(O)c4c(c3)O[C@H](c3ccc(O)cc3)CC4=O)O[C@H](CO)[C@@H](O)[C@@H]2O)[C@H](O)[C@H](O)[C@H]1O	0.8
CN(C)CCCN1c2ccccc2CCc2ccc(Cl)cc21	28
C[C@@]1(C(=O)O)CC[C@]2(C)CC[C@]3(C)C4=CC=C5C=C(O)C(=O)C=C5[C@]4(C)CC[C@@]3(C)[C@@H]2C1	0.4
C=Cc1c(C)c2cc3[nH]c(cc4nc(cc5nc(cc1[nH]2)C(C)=C5CCC(=O)O)C(CCC(=O)O)=C4C)c(C)c3C=C	0.005
CC1=C2C(=CO[C@H](C)[C@H]2C)C(=O)C(C(=O)O)=C1O	40
CC1=NN(c2ccccc2)C(=O)C1	0.016
Cc1cc(O)cc(C)c1Cl	3.3
CC(=O)OCC1=C(C(=O)O)N2C(=O)[C@@H](NC(=O)CCCC(N)C(=O)O)C2SC1 (stereo partly specified)	2
CC(C)(C)c1ccc(C(O)CCCN2CCC(C(O)(c3ccccc3)c3ccccc3)CC2)cc1 (stereo unspecified)	0.9
Clc1ccc(C(OCCN2CCCCC2)c2ccccc2)cc1 (stereo unspecified)	28
CC(C)NNC(=O)c1ccncc1	16
CN1CCN(C2=Nc3cc(Cl)ccc3Nc3ccccc32)CC1	4.4
COc1ccc(Cl)cc1C(=O)NCCc1ccc(S(=O)(=O)NC(=O)NC2CCCCC2)cc1	2.3
COc1ccc2cc(CCC(C)=O)ccc2c1	10
CCCCNc1ccc(C(=O)OCCN(C)C)cc1	5.8
CN1CCC(=C2c3ccccc3Sc3ccccc32)CC1	24
O=c1c2ccccc2[se]n1-c1ccccc1	0.2
Oc1c(Cl)cc(Cl)c2cccnc12	3
CNc1ccc2oc(C[C@@H]3OC4(CC[C@@H]3C)O[C@H](C(C)C(=O)c3ccc[nH]3)[C@H](C)C[C@H]4C)nc2c1C(=O)O (stereo partly specified)	5.5
OCCN1CCN(CCCN2c3ccccc3Sc3ccc(Cl)cc32)CC1	1
Clc1ccc(COC(Cn2ccnc2)c2ccc(Cl)cc2Cl)cc1 (stereo unspecified)	3
O=c1oc2ccccc2c(O)c1Cc1c(O)c2ccccc2oc1=O	4.2
